Key:
[1] = molecular target: T1, BRD3 BD1 L/V (Homo sapiens, UniProt Q15059, L70V); assay: competitive AlphaLISA; type: binding
[2] = molecular target: T2, BRD3 BD2 L/V (Homo sapiens, UniProt Q15059, L345V); assay: ITC; type: binding
[3] = molecular target: T3, BRD2 BD1 L/V (Homo sapiens, UniProt P25440, L110V); assay: competitive AlphaLISA; type: binding
[4] = molecular target: BRD3 BD2 WT (Homo sapiens, UniProt Q15059); assay: competitive AlphaLISA; type: binding
[5] = molecular target: T4, BRD3 BD1 WT (Homo sapiens, UniProt Q15059); assay: competitive AlphaLISA; type: binding
[6] = molecular target: T5, BRD4 BD1 WT (Homo sapiens, UniProt O60885); assay: ITC; type: binding
[7] = molecular target: T6, BRD4 BD2 WT (Homo sapiens, UniProt O60885); assay: competitive AlphaLISA; type: binding
[8] = molecular target: T2, BRD3 BD2 L/V; assay: competitive AlphaLISA; type: binding
[9] = molecular target: BRDT BD1 L/V (Homo sapiens, UniProt Q58F21, L63V); assay: competitive AlphaLISA; type: binding
[10] = molecular target: T7, BRD2 BD2 L/V (Homo sapiens, UniProt P25440, L383V); assay: ITC; type: binding
[11] = molecular target: T7, BRD2 BD2 L/V; assay: competitive AlphaLISA; type: binding
[12] = Intrinsic Clearance; conditions: mouse liver microsomes
[13] = molecular target: T6, BRD4 BD2 WT; assay: ITC; type: binding
[14] = molecular target: T8, BRD2 BD1 WT (Homo sapiens, UniProt P25440); assay: competitive AlphaLISA; type: binding
[15] = molecular target: T4, BRD3 BD1 WT; assay: ITC; type: binding
[16] = molecular target: WT BET bromodomains (BD1 and BD2 of BRD2, BRD3 and BRD4); assay: competitive AlphaLISA (Bio-JQ1 displacement); type: binding, human; conditions: mean and SD of all somatic bromodomains; active enantiomer concentration
[17] = molecular target: T9, BRD2 BD2 WT (Homo sapiens, UniProt P25440); assay: ITC; type: binding
[18] = molecular target: BRDT BD2 WT (Homo sapiens, UniProt Q58F21); assay: competitive AlphaLISA; type: binding
[19] = molecular target: T1, BRD3 BD1 L/V; assay: ITC; type: binding
[20] = in vitro; conditions: PAMPA, pH 7.4
[21] = Plasma Half-life; conditions: BALB/c, mouse, pH 7.4
[22] = molecular target: T10, BRD4 BD1 L/V (Homo sapiens, UniProt O60885, L94V); assay: ITC; type: binding; conditions: for Kd: Kd BRD4 BD1 L/V
[23] = molecular target: T10, BRD4 BD1 L/V; assay: competitive AlphaLISA; type: binding
[24] = molecular target: T9, BRD2 BD2 WT; assay: competitive AlphaLISA; type: binding
[25] = tested on: L/V somatic BET bromodomains; assay: ITC; conditions: L/V minus WT
[26] = molecular target: BRDT BD1 WT (Homo sapiens, UniProt Q58F21); assay: competitive AlphaLISA; type: binding
[27] = molecular target: T5, BRD4 BD1 WT; assay: competitive AlphaLISA; type: binding
[28] = molecular target: T11, BRD4 BD2 L/V (Homo sapiens, UniProt O60885, L387V); assay: competitive AlphaLISA; type: binding
[29] = molecular target: T3, BRD2 BD1 L/V; assay: ITC; type: binding
[30] = tested on: L/V BET bromodomains (BD1 and BD2 of BRD2, BRD3 and BRD4); assay: competitive AlphaLISA (Bio-JQ1 displacement); type: binding, human; conditions: for AlphaLISA pIC50 ± SD Δ: L/V minus WT; for AlphaLISA pIC50 ± SD L/V: mean and SD of all somatic bromodomains, active enantiomer concentration
[31] = molecular target: T11, BRD4 BD2 L/V; assay: ITC; type: binding
[32] = molecular target: T8, BRD2 BD1 WT; assay: ITC; type: binding
[33] = molecular target: BRDT BD2 L/V (Homo sapiens, UniProt Q58F21, L306V); assay: competitive AlphaLISA; type: binding
[34] = AlphaLISA pIC50 Value BRD4 BD1 L/V
[35] = AlphaLISA pIC50 Value BRD4 BD1 WT

Sequence of BRD3 BD2 WT (Q15059 306-416): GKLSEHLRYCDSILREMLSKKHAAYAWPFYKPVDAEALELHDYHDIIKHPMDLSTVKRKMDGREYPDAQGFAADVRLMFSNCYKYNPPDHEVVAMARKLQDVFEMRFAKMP
T9 sequence (P25440 344-455): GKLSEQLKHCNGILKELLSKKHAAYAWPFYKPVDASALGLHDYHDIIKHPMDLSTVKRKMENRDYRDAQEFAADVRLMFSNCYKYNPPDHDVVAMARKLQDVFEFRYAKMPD
T3 sequence (P25440 71-176 L110V limits assumed): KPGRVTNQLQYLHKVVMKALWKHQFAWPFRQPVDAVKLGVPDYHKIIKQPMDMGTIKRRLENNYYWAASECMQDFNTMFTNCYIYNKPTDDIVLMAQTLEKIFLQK
T8 sequence (P25440 71-176): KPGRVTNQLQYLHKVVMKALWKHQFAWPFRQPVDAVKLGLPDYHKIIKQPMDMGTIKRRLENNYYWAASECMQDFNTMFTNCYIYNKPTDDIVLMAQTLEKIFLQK
T7 sequence (P25440 344-455 L383V): as the sequence (P25440 344-455) above, with L40V counted along it
T1 sequence (Q15059 24-144 L70V limits assumed): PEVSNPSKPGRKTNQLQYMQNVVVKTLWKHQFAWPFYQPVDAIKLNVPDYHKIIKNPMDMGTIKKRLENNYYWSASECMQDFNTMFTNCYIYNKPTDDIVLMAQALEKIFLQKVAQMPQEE
T2 sequence (Q15059 306-416 L345V limits assumed): as the sequence (Q15059 306-416) above, with L40V counted along it
T4 sequence (Q15059 24-144): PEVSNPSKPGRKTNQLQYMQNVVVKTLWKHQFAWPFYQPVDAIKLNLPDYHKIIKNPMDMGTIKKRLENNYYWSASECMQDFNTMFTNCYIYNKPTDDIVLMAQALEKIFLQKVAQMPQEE

COC(=O)[C@H](C)[C@@H]1N=C(c2ccc(Cl)cc2)c2ccc(OC)cc2-n2c(C)nnc21 (racemic) [Compound 7]
IC50 [1]: 100 nM
Kd [2]: 230 nM
IC50 [3]: 200 nM
IC50 [4]: 5.01 µM
IC50 [5]: 1.58 µM
Kd [6]: 28 µM
IC50 [7]: 6.31 µM
IC50 [8]: 100 nM
IC50 [9]: 0.251 µM
Kd [10]: 330 nM
IC50 [11]: 316 nM
CL int [12]: <0.5 ml min^–1 g^–1
Kd [13]: 33 µM
IC50 [14]: 3.16 µM
Kd [15]: 12 µM
AlphaLISA pIC50 ± SD WT [16]: 5.4 ± 0.2
Kd [17]: > 60 µM
IC50 [18]: 7.94 µM
Kd [19]: 140 nM
Papp [20]: 15.8 ×10⁻⁶ cm/s
half-life at 50 µM [21]: > 180 min
ΔH BRD4 BD1 L/V ([22]; ITC, total compound concentration): -4.2 ± 0.0 kcal/mol
Kd ([22]; ITC of separated enantiomers and racemates, total compound concentration): 500 ± 50 nM
Kd ([22]; ITC, 30°C): 140 nM
IC50 [23, 34]: 200 nM
ΔpIC50 BRD4 BD1 ([23]; L/V minus WT, total compound concentration): 1.4
IC50 ([23]; pIC50 BRD4 BD1 L/V, separated enantiomers test, total compound concentration): 631 nM
IC50 [24]: 7.94 µM
ITC pKd ± SD Δ [25]: 2.0 ± 0.4
IC50 [26]: 5.01 µM
IC50 [27, 35]: 3.16 µM
IC50 ([27]; pIC50 BRD4 BD1 WT, separated enantiomers test, total compound concentration): 12.6 µM
IC50 [28]: 200 nM
Kd [29]: 310 nM
AlphaLISA pIC50 ± SD Δ [30]: 1.4 ± 0.2
Kd [31]: 980 nM
Kd [32]: 32 µM

C=CC[C@@H](C(=O)NCC)[C@@H]1N=C(c2ccc(Cl)cc2)c2cc(OC)ccc2-n2c(C)nnc21 (relative stereo) [Compound 18]
IC50 [1]: 794 nM
IC50 [3]: 2510 nM
IC50 [4]: 50.1 µM
IC50 [5]: 31.6 µM
IC50 [7]: 63.1 µM
IC50 [8]: 1260 nM
IC50 [9]: 5.01 µM
IC50 [11]: 1000 nM
CL int [12]: 2.6 ml min^–1 g^–1
IC50 [14]: 50.1 µM
AlphaLISA pIC50 ± SD WT [16]: 4.3 ± 0.1
IC50 [18]: 79.4 µM
Papp [20]: 5.2 ×10⁻⁶ cm/s
half-life at 50 µM [21]: > 180 min
IC50 [23, 34]: 1260 nM
IC50 [24]: 50.1 µM
IC50 [26]: 79.4 µM
IC50 [27, 35]: 39.8 µM
IC50 [28]: 2000 nM
AlphaLISA pIC50 ± SD Δ [30]: 1.5 ± 0.1
AlphaLISA pIC50 ± SD L/V [30]: 5.9 ± 0.2
IC50 [33]: 5.01 µM

C=CC[C@@H](C(=O)OC)[C@@H]1N=C(c2ccc(Cl)cc2)c2ccc(OC)cc2-n2c(C)nnc21 (relative stereo) [Compound 9]
IC50 [1]: 1580 nM
IC50 [3]: 3980 nM
IC50 [4]: 50.1 µM
IC50 [5]: 31.6 µM
IC50 [7]: 63.1 µM
IC50 [8]: 1000 nM
IC50 [9]: 6.31 µM
IC50 [11]: 1260 nM
CL int [12]: 9.4 ml min^–1 g^–1
IC50 [14]: 50.1 µM
AlphaLISA pIC50 ± SD WT [16]: 4.4 ± 0.1
IC50 [18]: 50.1 µM
Papp [20]: 13.6 ×10⁻⁶ cm/s
half-life at 50 µM [21]: > 180 min
IC50 [23, 34]: 3160 nM
IC50 [24]: 39.8 µM
IC50 [26]: 63.1 µM
IC50 [27, 35]: 39.8 µM
IC50 [28]: 3160 nM
AlphaLISA pIC50 ± SD Δ [30]: 1.3 ± 0.2
AlphaLISA pIC50 ± SD L/V [30]: 5.7 ± 0.2
IC50 [33]: 5.01 µM

Source: paper PMC5909127, “Optimization of a “bump-and-hole” approach to allele-selective BET bromodomain inhibition” (Chemical Science, 2018)
